Data on ten compounds can be found in US8791132B2, “Compounds and methods for treatment of hypertension” (Medivation Technologies, Inc., priority 2011, dated 2014).

Each structure is given as a SMILES string.

In experiment [1] the test system is conscious New Zealand White rabbits. Description: Blood pressure in conscious rabbits. As to conditions: i.v. cumulative dose-response study, Compound 3b maximum at 10 mg/kg. In kind it is in vivo, rabbit. The procedure:
Methods: Four adult New Zealand White rabbits of both sexes were chosen for these studies. […] To unveil peripheral effects of Compound 3b, two sets of acute studies were conducted in rabbits. […] A single intravenous bolus dose at 3 mg/kg was given and a time-course study was conducted in the second set of studies. Systolic, […], mean and […] blood pressures were recorded in both the studies. […] In a separate set of studies, Clonidine (positive control) was tested where all experimental procedures including dose-regimen were identical to that of the studies with […].

The test system of experiment [2] is SH-SY5Y cells over-expressing α-syn. Description: Cell viability (MTS reduction) in SH-SY5Y cells over-expressing α-synuclein. In kind it is cell-based. As to conditions: Homo sapiens, 336 h, α-syn over-expression (−dox), compounds at 10 nM, +dox control = 100, 14 days, read-out: Relative cell viability protection. The procedure: Cell Culture. SH-SY5Y cells stably transfected with a doxycyline-inducible wild-type α-synuclein (α-syn) gene along with control SH-SY5Y cells over-expressing the β-galactosidase (β-gal) gene (a gift from L. Stefanis, Division of Basic Neurosciences, Biomedical Research Foundation of the Academy of Athens, Athens, Greece) are cultured as described by Vekrellis et al. (Vekrellis K, Xilouri M, Emmanouilidou E, Stefanis L. (2009). Inducible over-expression of α-syn in human neuronal cells leads to caspase-dependent non-apoptotic death. J Neurochem 109, 1348-1362). In accordance with this method, cells are cultured and maintained in RPMI 1640, 10% fetal bovine serum supplemented with 250 μg/mL G418 and 50 μg/mL Hygromycin B. Expression of α-syn is switched off in stock cultures with doxycycline (2 μg/mL). For experimental procedures, cells are plated at (4−8×10^4 cells/cm^2) and differentiated in absence of doxycycline and in the presence of 20 μM all-trans retinoic acid (RA) (Sigma, St Louis, Mo., USA).
Viability Assay: Cells are cultured in 96-well plates. After 24 h, cells are treated with RA and Compounds of Invention at 0.1 and 10 nM in the absence of doxycyline. Culture medium with RA and drugs is fully replaced after 7 days. Cell viability is measured by the release of lactate dehydrogenase (LDH) from necrotic cells into the culture medium and by measuring the capacity of cells to metabolize MTS tetrazolium (MTS) after 14 days in culture. LDH leakage is assessed according to the Cytotoxicity Detection KitPlus (Roche, Mannheim, Germany) and MTS reduction is assessed by the CellTiter 96® AQueous One Solution Cell Proliferation assay (Promega Corporation, Madison, Wis., USA).
Assay results for the experiments with α-syn over-expression are presented as the MTS reduction capacity (cell viability) of control cells (+dox), cells over-expressing α-syn (−dox), and cells over-expressing α-syn incubated with Compounds of the Invention at 0.1 nM (FIG. 18A) or 10 nM (FIG. 18B).

Experiment [3] deals with SH-SY5Y cells. Description: Cell viability (MTS reduction) in 4-Br-A23187-treated SH-SY5Y cells. The format is cell-based. As to conditions: MTS reduction capacity; FCCP at 10 μM for 30 min as a control. The procedure:
After 24 h, cells were depleted from FBS and kept in culture for 24 h before the experiment. Cells were then treated with 4-Br-A23187 (2 μM), hydrogen peroxide (300 μM) or the mitochondrial toxin rotenone (25 μM) in the presence of vehicle or Compound of the Invention for 24 h. Cell death was determined by measurements of LDH release according to the Cytotoxicity Detection KitPlus (Roche, Mannheim, Germany). Cell viability was determined by measuring the capacity of cells to metabolize MTS tetrazolium (MTS) according to the Cytotoxicity Detection KitPlus (Roche, Mannheim, Germany) and MTS reduction is assessed by the CellTiter 96® AQueous One Solution Cell Proliferation assay (Promega Corporation, Madison, Wis., USA). Compounds were screened at 10 nM, using DMSO as vehicle. Assay results for the experiments with hydrogen peroxide are presented as the LDH release (cell death) of untreated cells (control), hydrogen peroxide-treated cells (vehicle), and co-incubation of hydrogen peroxide with Compounds of the Invention treated cells normalized to the vehicle (FIG. 17A). This assay assesses the ability of the test compounds to protect against cell death that is mediated by mitochondrial dysfunction. In the assay, the calcium ionophore 4-Br-A23187 is used to challenge the cells, causing calcium levels to rise in mitochondria, which leads to depolarization and cell death. Test compounds are assessed for their ability to prevent cell death in response to challenge with 4-Br-A23187.

The target of experiment [4] is T1, rat adrenergic α1B receptor (Rattus norvegicus, UniProt P15823).
T1 construct: rat adrenergic α1B receptor obtained from Wistar Rat liver; from tissue; host or cells: Wistar rat liver
T1 sequence (P15823 1-515): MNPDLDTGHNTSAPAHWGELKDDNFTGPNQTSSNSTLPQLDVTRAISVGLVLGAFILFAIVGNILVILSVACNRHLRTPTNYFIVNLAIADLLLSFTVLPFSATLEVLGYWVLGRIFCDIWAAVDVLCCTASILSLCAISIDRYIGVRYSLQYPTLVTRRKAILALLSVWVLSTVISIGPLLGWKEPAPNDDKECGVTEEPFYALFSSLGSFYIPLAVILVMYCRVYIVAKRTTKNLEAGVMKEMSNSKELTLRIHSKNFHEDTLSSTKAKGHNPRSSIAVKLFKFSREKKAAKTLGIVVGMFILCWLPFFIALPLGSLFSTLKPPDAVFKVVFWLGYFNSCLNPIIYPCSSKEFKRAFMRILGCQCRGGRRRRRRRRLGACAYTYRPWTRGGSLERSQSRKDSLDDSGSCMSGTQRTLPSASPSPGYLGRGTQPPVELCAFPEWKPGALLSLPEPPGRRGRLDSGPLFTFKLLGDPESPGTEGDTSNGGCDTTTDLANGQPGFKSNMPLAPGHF
Description: Radioligand binding, adrenergic α1B ([3H]Prazosin). As to conditions: 0.1 μM compound; read-out: Percentage inhibition of ligand binding, Adrenergic α1B. An outline of the steps:
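Specific binding, taken as total minus that remaining with 10 μM phentolamine, is measured after filtration and counting. Rat liver receptor preparation and 0.25 nM [3H]prazosin are incubated with compound in 50 mM Tris-HCl (pH 7.4, 0.5 mM EDTA) at 25° C for 60 min. Activity is reported as percent inhibition.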

In experiment [5] the target is T2, human recombinant adrenergic α2A receptor (Homo sapiens, UniProt P08913).
T2 construct: expressed in transfected cells; host or cells: insect Sf9 cells
T2 sequence (P08913 1-465): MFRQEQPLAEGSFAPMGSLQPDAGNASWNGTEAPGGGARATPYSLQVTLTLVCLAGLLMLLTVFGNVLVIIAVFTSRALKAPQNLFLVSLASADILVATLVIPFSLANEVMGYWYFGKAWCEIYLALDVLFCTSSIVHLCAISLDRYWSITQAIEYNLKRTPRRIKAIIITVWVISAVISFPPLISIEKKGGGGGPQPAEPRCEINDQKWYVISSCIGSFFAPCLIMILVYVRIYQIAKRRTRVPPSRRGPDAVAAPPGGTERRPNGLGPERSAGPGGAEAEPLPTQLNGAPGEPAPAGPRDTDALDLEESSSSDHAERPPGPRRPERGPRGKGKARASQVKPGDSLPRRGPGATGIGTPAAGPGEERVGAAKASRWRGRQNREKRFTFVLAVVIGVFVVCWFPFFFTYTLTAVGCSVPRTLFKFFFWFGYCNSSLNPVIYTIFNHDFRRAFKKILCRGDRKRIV
Description: Radioligand binding, adrenergic α2A ([3H]MK-912). As to conditions: 0.1 μM compound; read-out: Percentage inhibition of ligand binding, Adrenergic α2A. In outline:
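Sf9 membranes, 1 nM [3H]MK-912, 60 min, 25 °C, Tris-HCl pH 7.4/MgCl2/EDTA buffer. NSB: 10 μM WB-4101. Filtration, counting; % inhibition of specific binding.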

In experiment [6] the target is T3, human recombinant adrenergic α2B receptor (Homo sapiens, UniProt P18089).
T3 construct: expressed in transfected cells; host or cells: CHO-K1
T3 sequence (P18089 1-450): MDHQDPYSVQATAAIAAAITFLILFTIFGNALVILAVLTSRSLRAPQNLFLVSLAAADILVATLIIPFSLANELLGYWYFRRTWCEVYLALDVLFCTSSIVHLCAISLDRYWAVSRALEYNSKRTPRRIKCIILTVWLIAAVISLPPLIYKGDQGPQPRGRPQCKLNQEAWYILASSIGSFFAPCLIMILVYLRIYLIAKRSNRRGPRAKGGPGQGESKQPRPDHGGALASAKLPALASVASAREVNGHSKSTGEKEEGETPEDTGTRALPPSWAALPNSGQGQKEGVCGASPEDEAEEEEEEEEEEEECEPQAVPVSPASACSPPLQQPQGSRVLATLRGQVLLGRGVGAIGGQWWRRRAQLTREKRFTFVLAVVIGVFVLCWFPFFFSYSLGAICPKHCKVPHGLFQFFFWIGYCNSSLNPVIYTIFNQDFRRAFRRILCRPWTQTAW
Description: Radioligand binding, adrenergic α2B ([3H]Rauwolscine). As to conditions: 0.1 μM compound; read-out: Percentage inhibition of ligand binding, Adrenergic α2B. An outline of the steps: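 Values are percent inhibition of specific radioligand binding. The receptor, expressed in CHO-K1 cells, was exposed to 2.5 nM [3H]Rauwolscine at 25° C for 60 min, with 10 μM Prazosin marking non-specific binding.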

In experiment [7] the target is T4, human recombinant adrenergic α1D receptor (Homo sapiens, UniProt P25100).
T4 construct: expressed in transfected cells; host or cells: HEK-293
T4 sequence (P25100 1-572): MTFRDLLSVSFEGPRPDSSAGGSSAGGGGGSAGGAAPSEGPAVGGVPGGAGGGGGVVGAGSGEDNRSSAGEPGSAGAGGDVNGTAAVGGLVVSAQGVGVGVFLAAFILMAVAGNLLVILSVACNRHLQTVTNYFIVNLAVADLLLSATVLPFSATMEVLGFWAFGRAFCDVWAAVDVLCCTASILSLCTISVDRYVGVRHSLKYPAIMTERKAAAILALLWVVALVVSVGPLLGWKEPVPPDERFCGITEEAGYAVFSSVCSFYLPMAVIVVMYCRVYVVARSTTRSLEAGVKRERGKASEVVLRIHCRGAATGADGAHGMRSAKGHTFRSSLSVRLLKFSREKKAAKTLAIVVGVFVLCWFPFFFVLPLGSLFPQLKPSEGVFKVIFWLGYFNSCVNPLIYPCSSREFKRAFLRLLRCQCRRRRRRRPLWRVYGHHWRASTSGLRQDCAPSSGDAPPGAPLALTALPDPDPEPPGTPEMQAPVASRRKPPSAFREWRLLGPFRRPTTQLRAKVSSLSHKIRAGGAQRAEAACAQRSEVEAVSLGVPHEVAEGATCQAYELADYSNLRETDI
Description: Radioligand binding, adrenergic α1D ([3H]Prazosin). As to conditions: 0.1 μM compound; read-out: Percentage inhibition of ligand binding, Adrenergic α1D. The procedure:
Compounds were incubated with 0.6 nM [3H]Prazosin for 60 min at 25° C. Non-specific binding was estimated in the presence of 10 μM phentolamine. Receptor proteins were filtered and washed, the filters were then counted to determine [3H]Prazosin specifically bound. […] Biochemical assay results are presented as the percent inhibition of specific binding in Table B1.

`Clc1cccc(Cl)c1N=C1NCCN1` [Clonidine, clonidine, reference compound]: the “maximum arterial blood pressure drop” value in experiment [1] is −6 mmHg.

On to `Cc1ccc2c(c1)c1c(n2CC(O)c2ccncc2)CCN(C)C1` (stereo not shown) [Cpd3b], for which the viability at 0.01 µM in experiment [2] was found to be 78.3%.

As to `CN1CCc2c(c3cc(Cl)ccc3n2CC(O)c2ccncc2)C1` (stereo not shown) [Cpd4a], in experiment [2], the viability at 0.01 µM came to 77.5%.

As to `Cc1ccc2c(c1)c1c(n2CC(C)(O)c2cccnc2)CCN(C)C1` (stereo not shown) [Cpd5b], the viability at 0.01 µM in experiment [2] stood at 85.3%.

In the case of `Cc1ccc2c(c1)c1c(n2CC(O)c2ccncc2)CCNC1` (stereo not shown) [Cpd39a], in experiment [2], the viability at 0.01 µM is 80.8%.

As to `N#CC(C#N)=NNc1ccc(OC(F)(F)F)cc1` [FCCP, p-trifluoromethoxyphenylhydrazone, reference compound], the “Relative cell viability protection” value in experiment [3] was 0.1035.

Consider `Cc1ccc2c(c1)c1c(n2CCc2ccc3c(c2)CCCC3)CCN(C)C1` [compound 332, 2,8-dimethyl-5-[2-(5,6,7,8-tetrahydro-naphthalen-2-yl)-ethyl]-2,3,4,5-tetrahydro-1H-pyrido[4,3-b]indole], for which the inhibition at 0.1 µM in experiment [4] turned out to be 41%; in experiment [5], 94%; in experiment [6] it was 86%; in experiment [7] it was 51%.

Regarding `Cc1ccc2c(c1)c1c(n2C#Cc2ccc(S(N)(=O)=O)cc2)CN(C)CC1` [compound 333, 4-(2,6-dimethyl-1,2,3,4-tetrahydro-β-carbolin-9-ylethynyl)-benzenesulfonamide], the inhibition at 0.1 µM worked out at 65% in experiment [4], 52% in experiment [5], 88% in experiment [6] and 16% in experiment [7].

Take `Cc1ccc2c(c1)c1c(n2C#Cc2ccc(S(N)(=O)=O)s2)CCN(C)C1` [compound 334, 5-(2,8-dimethyl-1,2,3,4-tetrahydro-pyrido[4,3-b]indol-5-ylethynyl)-thiophene-2-sulfonic acid amide]: the inhibition at 0.1 µM stood at 91% in experiment [4], 55% in experiment [5], 82% in experiment [6] and 72% in experiment [7].

Regarding `C/C(=C\n1c2c(c3cc(C)cnc31)CN(C)CC2)c1ccc(F)cc1` [compound 335, 9-[2-(4-fluoro-phenyl)-propenyl]-3,6-dimethyl-6,7,8,9-tetrahydro-5H-1,6,9-triaza-fluorene], the inhibition at 0.1 µM in experiment [4] came to 82%; in experiment [5], 60%; in experiment [6] it was 99%; in experiment [7], 73%.
